How the values were obtained:
[1] = Log D value at pH 7.4; format: physicochemical; conditions: buffer
[2] = Partition coefficient (logP); format: physicochemical; conditions: octanol/water
[3] = Log P / Log D value was determined; format: physicochemical; conditions: octanol/water
[4] = Oral bioavailability in rat; format: ADME, organism-based; conditions: in vivo, read-out: Bioavailability_oral
[5] = Plasma t1/2 of compound was determined in diabetic rat; format: ADME, organism-based
[6] = Maximum concentration of drug in plasma was determined at 2 mg/kg orally; format: ADME, organism-based; design: dose 2 mg/kg, route oral; conditions: in vivo, po
[7] = test system: Rattus norvegicus; test: Effective dose to inhibit aldose reductase activity by normalizing the elevated lens fructose levels in sciatic nerve of chronically diabetic rat orally; format: functional; conditions: po
[8] = test system: Rattus norvegicus; test: Effective dose to inhibit aldose reductase activity by normalizing the elevated lens sorbitol levels in sciatic nerve of chronically diabetic rat orally; format: functional; conditions: po
[9] = target: Aldo-keto reductase family 1 member B1 (Homo sapiens, UniProt P15121); test: Inhibition of human recombinant Aldose reductase […]
[10] = test system: Rattus norvegicus; test: Aldose reductase inhibition activity in vivo by normalizing the elevated nerve fructose levels in sciatic nerve of acutely diabetic rat at 20 mg/kg; format: functional
[11] = test system: Rattus norvegicus; test: Aldose reductase inhibition activity in vivo by normalizing the elevated nerve sorbitol levels in sciatic nerve of acutely diabetic rat at 20 mg/kg; format: functional
[12] = test system: Rattus norvegicus; test: Aldose reductase inhibition activity in vivo by normalizing the elevated nerve fructose levels in sciatic nerve of acutely diabetic rat at 10 mg/kg; format: functional
[13] = test system: Rattus norvegicus; test: Aldose reductase inhibition activity in vivo by normalizing the elevated nerve sorbitol levels in sciatic nerve of acutely diabetic rat at 10 mg/kg; format: functional
[14] = species on record: Rattus norvegicus; test: Effective dose to inhibit aldose reductase activity by normalizing the elevated nerve fructose levels in sciatic nerve of chronically diabetic rat
[15] = species on record: Rattus norvegicus; test: Effective dose to inhibit aldose reductase activity by normalizing the elevated nerve sorbitol levels in sciatic nerve of chronically diabetic rat
[16] = pKa value of compound was determined; format: physicochemical
[17] = test system: Rattus norvegicus; test: Aldose reductase inhibition activity in vivo by normalizing the elevated nerve fructose levels in sciatic nerve of acutely diabetic rat at 300 mg/kg; format: functional
[18] = test system: Rattus norvegicus; test: Aldose reductase inhibition activity in vivo by normalizing the elevated nerve sorbitol levels in sciatic nerve of acutely diabetic rat at 300 mg/kg; format: functional
[19] = Dissociation constant was determined; format: physicochemical
[20] = test system: Rattus norvegicus; test: Aldose reductase inhibition activity in vivo by normalizing the elevated lens sorbitol levels in sciatic nerve of acutely diabetic rat at 20 mg/kg; conditions: read-out: Inhibition

Cc1c(S(=O)(=O)c2ccc(=O)[nH]n2)oc2ccc(Cl)cc12
logD [1]: 2.46 | logP [2]: 3.05 | Log P/Log D [3]: 0.81 | bioavailability [4]: 98% | half-life [5]: 26 h | Cmax [6]: 9000 ng/mL | ED90 [7]: 3 mg/kg | ED90 [8]: 0.8 mg/kg | IC50 [9]: 0.84 nM

O=c1ccc(S(=O)(=O)c2cc3ccccc3o2)n[nH]1
IC50 [9]: 150 nM

O=c1ccc(S(=O)(=O)c2ccc(Br)cc2F)n[nH]1
IC50 [9]: 140 nM

O=c1ccc(S(=O)(=O)c2cc3ccccc3[nH]2)n[nH]1
IC50 [9]: 5000 nM

Cc1ccc(S(=O)(=O)c2ccc(O)nn2)cc1
IC50 [9]: 1900 nM

O=c1ccc(S(=O)(=O)c2ccccc2Cl)n[nH]1
inhibition in vivo at 20 mg/kg [10]: 68% | IC50 [9]: 170 nM | inhibition in vivo at 20 mg/kg [11]: 96%

O=S(=O)(c1ccc(O)nn1)c1ccccc1-c1ccccc1
IC50 [9]: 2200 nM

O=S(=O)(c1ccc(O)nn1)c1nc2ccccc2s1
IC50 [9]: 450 nM

O=c1ccc(S(=O)(=O)c2cc3ccccc3s2)n[nH]1
IC50 [9]: 150 nM

O=c1ccc(S(=O)(=O)c2ccc(F)cc2Cl)n[nH]1
inhibition in vivo at 10 mg/kg [12]: 46% | inhibition in vivo at 10 mg/kg [13]: 91% | IC50 [9]: 280 nM

O=c1ccc(S(=O)(=O)c2ccc(Cl)cc2Cl)n[nH]1
inhibition in vivo at 10 mg/kg [12]: 73% | inhibition in vivo at 10 mg/kg [13]: 95% | IC50 [9]: 190 nM | ED90 [14]: 20 mg/kg | ED90 [15]: 5 mg/kg

O=c1ccc(S(=O)(=O)c2ccccc2Br)n[nH]1
IC50 [9]: 210 nM

COc1ccc(S(=O)(=O)c2ccc(=O)[nH]n2)cc1
IC50 [9]: 2000 nM

O=S(=O)(c1ccccc1)c1ccc(O)nn1
pKa [16]: 7.1 | inhibition in vivo at 300 mg/kg [17]: 89% | inhibition in vivo at 300 mg/kg [18]: 95% | IC50 [9]: 600 nM

O=C1NC(=O)[C@@]2(CCOc3ccc(F)cc32)N1 [SORBINIL]
pKa [19]: > 8

O=C(O)Cc1nn(Cc2nc3cc(C(F)(F)F)ccc3s2)c(=O)c2ccccc12 [ZOPOLRESTAT]
pKa [16]: 3 | inhibition in vivo at 20 mg/kg [20]: 41% | ED90 [14]: 40 mg/kg | ED90 [15]: 10 mg/kg

From ChEMBL document CHEMBL1145005 (J Med Chem, 2003)
